The text below walks through data of ChEMBL document CHEMBL5291721, “A preclinical secondary pharmacology resource illuminates target-adverse drug reaction associations of marketed drugs” (Nat Commun, 2023).

For assay [1], the target named is T1, Alpha-1A adrenergic receptor (Homo sapiens, UniProt P35348).
T1 sequence (P35348 whole entry): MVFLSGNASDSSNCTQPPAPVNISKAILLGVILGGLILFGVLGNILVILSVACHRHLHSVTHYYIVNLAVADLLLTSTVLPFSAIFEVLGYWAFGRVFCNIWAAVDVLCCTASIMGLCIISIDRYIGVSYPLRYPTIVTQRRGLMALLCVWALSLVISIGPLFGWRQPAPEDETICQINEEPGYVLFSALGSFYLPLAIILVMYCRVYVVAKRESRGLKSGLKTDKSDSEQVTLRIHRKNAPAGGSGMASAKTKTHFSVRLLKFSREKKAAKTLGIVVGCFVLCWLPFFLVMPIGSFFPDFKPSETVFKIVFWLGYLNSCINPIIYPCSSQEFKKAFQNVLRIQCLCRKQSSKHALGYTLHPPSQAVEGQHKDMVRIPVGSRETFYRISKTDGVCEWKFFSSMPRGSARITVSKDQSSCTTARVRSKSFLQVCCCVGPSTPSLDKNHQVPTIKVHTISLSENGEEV
Type of assay: functional, cell-based.

Assay [2] deals with T2, Muscarinic acetylcholine receptor M1 (Homo sapiens, UniProt P11229).
T2 sequence (P11229 whole entry): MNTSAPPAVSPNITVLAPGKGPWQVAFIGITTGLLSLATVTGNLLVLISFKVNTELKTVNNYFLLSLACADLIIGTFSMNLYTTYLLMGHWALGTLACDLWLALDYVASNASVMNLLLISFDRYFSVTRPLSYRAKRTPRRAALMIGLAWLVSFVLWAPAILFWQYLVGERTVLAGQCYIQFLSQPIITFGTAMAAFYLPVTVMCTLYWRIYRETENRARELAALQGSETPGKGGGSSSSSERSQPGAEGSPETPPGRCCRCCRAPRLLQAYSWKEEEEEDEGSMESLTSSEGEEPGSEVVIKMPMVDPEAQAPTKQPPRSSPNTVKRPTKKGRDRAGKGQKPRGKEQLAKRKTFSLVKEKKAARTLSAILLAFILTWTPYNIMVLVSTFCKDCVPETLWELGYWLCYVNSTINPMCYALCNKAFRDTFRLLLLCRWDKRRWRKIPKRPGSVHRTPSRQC
Type of assay: functional, cell-based.

The target in a further assay is D(1A) dopamine receptor (Homo sapiens, UniProt P21728).
Sequence of D(1A) dopamine receptor (P21728 whole entry): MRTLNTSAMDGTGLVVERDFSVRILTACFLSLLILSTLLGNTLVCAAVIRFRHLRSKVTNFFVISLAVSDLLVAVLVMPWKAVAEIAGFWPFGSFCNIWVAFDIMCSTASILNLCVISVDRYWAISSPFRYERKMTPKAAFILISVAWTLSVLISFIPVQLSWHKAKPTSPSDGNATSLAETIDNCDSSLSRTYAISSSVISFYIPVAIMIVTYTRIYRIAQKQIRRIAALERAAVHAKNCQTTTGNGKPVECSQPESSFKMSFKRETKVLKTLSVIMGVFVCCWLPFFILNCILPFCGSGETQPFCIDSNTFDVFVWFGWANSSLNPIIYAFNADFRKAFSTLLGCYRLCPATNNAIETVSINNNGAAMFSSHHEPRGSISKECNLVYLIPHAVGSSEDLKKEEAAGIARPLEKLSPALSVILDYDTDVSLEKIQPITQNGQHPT
The target in assay [3] is T3, 5-hydroxytryptamine receptor 1A (Homo sapiens, UniProt P08908).
T3 sequence (P08908 whole entry): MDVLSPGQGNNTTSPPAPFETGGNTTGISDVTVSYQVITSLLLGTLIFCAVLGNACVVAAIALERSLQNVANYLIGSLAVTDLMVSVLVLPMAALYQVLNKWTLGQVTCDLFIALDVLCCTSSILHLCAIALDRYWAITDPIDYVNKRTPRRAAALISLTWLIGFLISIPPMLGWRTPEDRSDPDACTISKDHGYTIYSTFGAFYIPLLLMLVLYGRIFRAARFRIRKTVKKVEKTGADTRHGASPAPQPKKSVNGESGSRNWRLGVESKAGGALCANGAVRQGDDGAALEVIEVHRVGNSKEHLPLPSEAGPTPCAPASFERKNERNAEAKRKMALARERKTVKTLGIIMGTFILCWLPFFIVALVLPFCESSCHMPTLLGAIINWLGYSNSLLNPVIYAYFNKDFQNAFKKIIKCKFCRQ

Assay [4] deals with 3',5'-cyclic-AMP phosphodiesterase 4A (Homo sapiens, UniProt P27815). Type of assay: functional.
Sequence of 3',5'-cyclic-AMP phosphodiesterase 4A (P27815 whole entry): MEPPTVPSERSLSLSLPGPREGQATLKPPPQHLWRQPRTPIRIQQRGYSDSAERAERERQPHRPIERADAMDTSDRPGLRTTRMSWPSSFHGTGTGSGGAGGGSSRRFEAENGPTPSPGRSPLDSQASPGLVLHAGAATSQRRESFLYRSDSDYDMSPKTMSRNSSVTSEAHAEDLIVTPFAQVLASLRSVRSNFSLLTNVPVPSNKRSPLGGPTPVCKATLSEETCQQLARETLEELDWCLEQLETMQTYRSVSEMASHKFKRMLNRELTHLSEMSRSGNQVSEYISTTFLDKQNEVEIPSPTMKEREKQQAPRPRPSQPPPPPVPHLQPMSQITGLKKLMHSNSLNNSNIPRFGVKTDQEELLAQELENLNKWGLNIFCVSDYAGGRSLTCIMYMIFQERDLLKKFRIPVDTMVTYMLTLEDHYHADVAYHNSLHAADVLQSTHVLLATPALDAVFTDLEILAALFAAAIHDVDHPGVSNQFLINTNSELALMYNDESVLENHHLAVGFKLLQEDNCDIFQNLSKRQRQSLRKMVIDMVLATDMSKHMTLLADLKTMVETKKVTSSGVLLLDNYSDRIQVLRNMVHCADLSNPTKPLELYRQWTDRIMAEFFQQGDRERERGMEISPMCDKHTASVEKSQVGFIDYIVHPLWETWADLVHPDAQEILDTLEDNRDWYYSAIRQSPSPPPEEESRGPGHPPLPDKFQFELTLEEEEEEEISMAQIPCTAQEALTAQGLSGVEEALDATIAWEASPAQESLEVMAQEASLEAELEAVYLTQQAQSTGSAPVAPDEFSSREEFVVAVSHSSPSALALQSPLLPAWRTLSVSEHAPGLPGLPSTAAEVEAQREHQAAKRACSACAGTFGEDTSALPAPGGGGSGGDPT
The target in another assay is T4, Progesterone receptor (Homo sapiens, UniProt P06401).
T4 sequence (P06401 whole entry): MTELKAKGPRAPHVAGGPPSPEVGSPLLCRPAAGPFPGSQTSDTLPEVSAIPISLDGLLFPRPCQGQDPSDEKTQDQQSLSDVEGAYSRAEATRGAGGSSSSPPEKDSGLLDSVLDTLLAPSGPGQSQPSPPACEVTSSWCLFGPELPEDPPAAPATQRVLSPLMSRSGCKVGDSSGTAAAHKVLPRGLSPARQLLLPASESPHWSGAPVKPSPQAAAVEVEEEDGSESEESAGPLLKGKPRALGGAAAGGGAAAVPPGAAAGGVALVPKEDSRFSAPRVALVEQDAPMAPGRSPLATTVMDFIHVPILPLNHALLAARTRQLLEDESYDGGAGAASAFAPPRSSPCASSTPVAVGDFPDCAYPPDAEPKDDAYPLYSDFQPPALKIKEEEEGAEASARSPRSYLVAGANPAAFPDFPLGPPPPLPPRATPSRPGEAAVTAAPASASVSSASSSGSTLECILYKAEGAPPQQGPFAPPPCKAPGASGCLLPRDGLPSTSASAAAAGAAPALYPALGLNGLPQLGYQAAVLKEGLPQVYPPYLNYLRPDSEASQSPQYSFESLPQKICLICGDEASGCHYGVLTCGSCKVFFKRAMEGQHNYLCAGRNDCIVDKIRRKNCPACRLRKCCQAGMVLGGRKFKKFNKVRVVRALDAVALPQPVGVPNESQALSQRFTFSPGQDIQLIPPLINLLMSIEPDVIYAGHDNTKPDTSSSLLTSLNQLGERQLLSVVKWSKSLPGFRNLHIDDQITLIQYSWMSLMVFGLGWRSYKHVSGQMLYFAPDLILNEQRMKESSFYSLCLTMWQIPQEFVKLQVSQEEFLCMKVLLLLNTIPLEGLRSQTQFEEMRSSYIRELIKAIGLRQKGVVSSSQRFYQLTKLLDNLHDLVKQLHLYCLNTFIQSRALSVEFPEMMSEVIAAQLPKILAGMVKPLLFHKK

Assay [5] has as its target Sodium-dependent noradrenaline transporter (Homo sapiens, UniProt P23975).
In assay [6] the target is Sodium-dependent dopamine transporter (Homo sapiens, UniProt Q01959).
Sequence of Sodium-dependent dopamine transporter (Q01959 whole entry): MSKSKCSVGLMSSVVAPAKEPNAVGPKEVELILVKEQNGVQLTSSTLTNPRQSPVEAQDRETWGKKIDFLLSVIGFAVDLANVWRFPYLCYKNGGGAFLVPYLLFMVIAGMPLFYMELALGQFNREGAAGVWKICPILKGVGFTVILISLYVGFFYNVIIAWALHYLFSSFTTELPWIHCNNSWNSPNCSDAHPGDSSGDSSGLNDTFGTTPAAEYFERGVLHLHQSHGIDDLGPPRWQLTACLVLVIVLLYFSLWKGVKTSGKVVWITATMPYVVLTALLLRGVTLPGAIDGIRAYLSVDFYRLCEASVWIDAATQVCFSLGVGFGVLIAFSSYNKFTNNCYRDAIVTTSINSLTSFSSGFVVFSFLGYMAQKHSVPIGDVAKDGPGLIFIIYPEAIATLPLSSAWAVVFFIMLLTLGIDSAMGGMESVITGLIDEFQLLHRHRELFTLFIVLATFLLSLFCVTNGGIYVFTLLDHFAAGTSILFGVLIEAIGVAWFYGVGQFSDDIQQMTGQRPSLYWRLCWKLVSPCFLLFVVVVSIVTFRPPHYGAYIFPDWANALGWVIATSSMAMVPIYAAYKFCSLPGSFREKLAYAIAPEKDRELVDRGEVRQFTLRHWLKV
Assay [7] concerns the target Sodium-dependent serotonin transporter (Homo sapiens, UniProt P31645).
The target in another assay is T5, Thromboxane A2 receptor (Homo sapiens, UniProt P21731).
T5 sequence (P21731 whole entry): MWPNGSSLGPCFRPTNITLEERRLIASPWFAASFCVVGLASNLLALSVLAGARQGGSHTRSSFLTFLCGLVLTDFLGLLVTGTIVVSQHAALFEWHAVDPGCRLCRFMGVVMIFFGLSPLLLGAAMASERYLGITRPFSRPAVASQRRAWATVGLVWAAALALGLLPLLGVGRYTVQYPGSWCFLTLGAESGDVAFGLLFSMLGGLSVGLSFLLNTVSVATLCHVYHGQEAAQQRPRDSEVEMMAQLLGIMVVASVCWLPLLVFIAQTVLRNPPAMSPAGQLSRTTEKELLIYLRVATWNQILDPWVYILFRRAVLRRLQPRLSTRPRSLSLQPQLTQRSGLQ
Type of assay: functional, cell-based.

Each structure is given as a SMILES string. Where only a bound is given, the exact number is not on record here.
Also: assay procedure not described here.

Sequence of Sodium-dependent serotonin transporter (P31645 whole entry): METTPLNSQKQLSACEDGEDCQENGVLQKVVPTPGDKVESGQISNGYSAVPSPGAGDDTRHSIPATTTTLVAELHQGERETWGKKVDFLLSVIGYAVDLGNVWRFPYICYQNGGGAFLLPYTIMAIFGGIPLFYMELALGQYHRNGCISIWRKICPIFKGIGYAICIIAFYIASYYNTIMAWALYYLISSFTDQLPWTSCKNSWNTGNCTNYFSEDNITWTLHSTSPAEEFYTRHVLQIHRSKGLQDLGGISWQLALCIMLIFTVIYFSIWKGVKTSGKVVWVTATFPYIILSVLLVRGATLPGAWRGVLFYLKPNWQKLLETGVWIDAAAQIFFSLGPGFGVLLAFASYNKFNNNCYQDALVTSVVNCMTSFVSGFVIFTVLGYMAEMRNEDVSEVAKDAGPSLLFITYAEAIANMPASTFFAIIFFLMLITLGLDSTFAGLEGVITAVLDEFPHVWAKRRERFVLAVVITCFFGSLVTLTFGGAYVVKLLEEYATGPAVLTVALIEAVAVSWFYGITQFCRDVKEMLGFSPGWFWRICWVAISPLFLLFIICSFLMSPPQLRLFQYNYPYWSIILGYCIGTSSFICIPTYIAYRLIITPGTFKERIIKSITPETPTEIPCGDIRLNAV
Sequence of Sodium-dependent noradrenaline transporter (P23975 whole entry): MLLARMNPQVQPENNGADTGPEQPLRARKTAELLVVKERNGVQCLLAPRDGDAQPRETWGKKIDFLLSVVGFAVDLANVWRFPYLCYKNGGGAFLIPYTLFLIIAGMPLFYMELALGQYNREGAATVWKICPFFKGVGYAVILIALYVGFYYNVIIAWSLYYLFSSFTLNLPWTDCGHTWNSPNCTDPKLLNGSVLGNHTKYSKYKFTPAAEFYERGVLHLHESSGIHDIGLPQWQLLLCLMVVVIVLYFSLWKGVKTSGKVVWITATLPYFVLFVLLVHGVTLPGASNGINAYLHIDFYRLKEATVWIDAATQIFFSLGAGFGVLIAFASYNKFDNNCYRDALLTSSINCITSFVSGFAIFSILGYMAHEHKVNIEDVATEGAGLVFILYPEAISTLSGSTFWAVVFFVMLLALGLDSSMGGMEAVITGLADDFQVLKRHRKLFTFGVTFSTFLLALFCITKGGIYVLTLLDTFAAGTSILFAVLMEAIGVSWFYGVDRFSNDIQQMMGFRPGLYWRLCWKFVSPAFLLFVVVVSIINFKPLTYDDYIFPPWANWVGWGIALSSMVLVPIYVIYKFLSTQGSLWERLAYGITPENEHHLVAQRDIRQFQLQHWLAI

On to `CC(=O)Oc1c(C)c(C)c2c(c1C)CC[C@@](C)(CCC[C@H](C)CCC[C@H](C)CCCC(C)C)O2`, for which the AC50 is > 30 µM in assay [1]; > 30 µM in assay [2]; > 30 µM on D(1A) dopamine receptor; > 30 µM in [3]; 9.38 µM in assay [4]; > 30 µM on Progesterone receptor. For the same compound, the AC50 (in [5]; in assay [6]; in [7]; on Thromboxane A2 receptor) was > 30 µM each time.
For the compound `OC(c1ccccc1)(c1ccccc1)C12CC[N+](CCOCc3ccccc3)(CC1)CC2`, the AC50 was > 30 µM in assay [1]; > 30 µM in assay [2]; > 30 µM at D(1A) dopamine receptor; > 30 µM in assay [3]; 15.6 µM in [4]; > 30 µM on Progesterone receptor. Besides, the AC50 is 2.73 µM in assay [5], 0.898 µM in [6], 0.302 µM in assay [7] and > 30 µM on Thromboxane A2 receptor.
For the compound `CC[C@@H](C(N)=O)N1CCCC1=O`, the AC50 (in assay [1]; in [2]; at D(1A) dopamine receptor; in assay [3]; in [4]; at Progesterone receptor) was > 30 µM each time. Moreover, the half-maximal activity concentration (AC50) (in assay [5]; in assay [6]; in assay [7]; on Thromboxane A2 receptor) was > 30 µM in each case.
On to `N=C1CCCN1Cc1[nH]c(=O)[nH]c(=O)c1Cl`, for which the concentration at half-maximal activity (AC50) (in [1]; in assay [2]; at D(1A) dopamine receptor; in assay [3]; in assay [4]; at Progesterone receptor) was > 30 µM in each case. Moreover, the concentration at half-maximal activity (AC50) (in assay [5]; in assay [6]; in assay [7]; on Thromboxane A2 receptor) was > 30 µM in each case.
For the compound `CCC(CC)(CC(=O)Nc1cccc(/C=C/c2nc(C3CCC3)cs2)c1)C(=O)O`, the AC50 in assay [1] is > 10 µM; in assay [2] it was > 10 µM; at D(1A) dopamine receptor, > 30 µM; in [3], > 30 µM; in assay [4], > 30 µM; on Progesterone receptor, > 30 µM. Moreover, the AC50 in assay [5] is > 30 µM; in assay [6], > 30 µM; in assay [7] it was > 30 µM; on Thromboxane A2 receptor, > 3 µM.
Turning to `CC(=O)[C@@]1(O)CC[C@H]2[C@@H]3C=C(C)C4=CC(=O)CC[C@]4(C)[C@H]3CC[C@@]21C`, the AC50 was > 30 µM in assay [1]; > 30 µM in assay [2]; > 30 µM on D(1A) dopamine receptor; > 30 µM in [3]; > 30 µM in assay [4]; 0.285 µM on Progesterone receptor. The AC50 (in [5]; in assay [6]; in [7]; at Thromboxane A2 receptor) was > 30 µM each time.
For `CCOC(=O)[C@H](CCc1ccccc1)N[C@@H](C)C(=O)N1CC2(C[C@H]1C(=O)O)SCCS2`, the concentration at half-maximal activity (AC50) (in assay [1]; in assay [2]; on D(1A) dopamine receptor; in [3]; in [4]; on Progesterone receptor) was > 30 µM throughout. The AC50 (in [5]; in [6]; in [7]; at Thromboxane A2 receptor) was > 30 µM in each case.
As for `CCCNC(C)C(=O)Nc1c(C)csc1C(=O)OC` (configuration not stated) [ARTICAINE], the half-maximal activity concentration (AC50) (in [1]; in [2]; at D(1A) dopamine receptor; in [4]; at Progesterone receptor; in assay [5]) was > 30 µM each time. Also, the AC50 (in assay [6]; in assay [7]; on Thromboxane A2 receptor) was > 30 µM throughout.
Take `CCOc1ccc(Cc2cc([C@@H]3O[C@H](CO)[C@@H](O)[C@H](O)[C@H]3O)ccc2Cl)cc1` [DAPAGLIFLOZIN]: the AC50 (in assay [1]; in [2]; on D(1A) dopamine receptor; in assay [3]; in assay [4]; at Progesterone receptor) was > 30 µM throughout. For the same compound, the AC50 (in assay [5]; in assay [6]; at Thromboxane A2 receptor) was > 30 µM in each case.
Consider `NNc1nnc(NN)c2ccccc12` [DIHYDRALAZINE], for which the concentration at half-maximal activity (AC50) (in assay [1]; in [2]; at D(1A) dopamine receptor; in assay [3]; in assay [4]; in assay [5]) was > 30 µM each time. Also, the half-maximal activity concentration (AC50) (in [6]; in assay [7]; on Thromboxane A2 receptor) was > 30 µM each time.
Turning to `COc1ccc2c(c1)N(C[C@H](C)CN(C)C)c1ccccc1S2` [LEVOMEPROMAZINE], the half-maximal activity concentration (AC50) is > 30 µM in [2]; 2.84 µM in assay [3]; > 30 µM in assay [4]; > 30 µM at Progesterone receptor; > 30 µM in assay [5]; > 30 µM in assay [7]. The activity on Thromboxane A2 receptor was half-maximal at 26 µM (AC50).
With `Nc1ccc2cc3ccc(N)cc3nc2c1` [PROFLAVINE], the concentration at half-maximal activity (AC50) is > 0.3 µM in [1]; > 0.3 µM in [2]; 10.6 µM on D(1A) dopamine receptor; 17.2 µM in assay [3]; > 30 µM in [4]; > 30 µM at Progesterone receptor. Moreover, the AC50 in assay [5] was 2.69 µM; in assay [6] it was 5.16 µM; in assay [7], 26.6 µM.
In the case of `CCOc1ccccc1OCC1CNCCO1` (configuration not stated) [VILOXAZINE], the AC50 in [1] is > 30 µM; in assay [2], > 30 µM; at D(1A) dopamine receptor, > 30 µM; in [3], 9.72 µM; in assay [4], > 30 µM; at Progesterone receptor, > 30 µM. In addition, the AC50 in assay [5] is 0.362 µM; in assay [6], > 30 µM; on Thromboxane A2 receptor, > 30 µM.
